Values joined by “and” are separate entries in the source; they are usually repeats but may differ in a detail not shown here. Identical values can stand only once. Inconclusive results and toxic doses are left out. The calls were made as follows: active = survival T/C of 150% or more; inactive = T/C below 125% in these data.
Test system: P388 leukemia ip, CD2F1 mice, survival T/C
Test: NCI In Vivo Anticancer Drug Screen. Data for tumor model P388 Leukemia (intraperitoneal) in CD2F1 (CDF1) mice
Conditions: endpoint: median survival time, higher = longer survival
Summary of the method: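 Mice carrying the transplanted tumor received test compound or vehicle. Survival was recorded in each group, and the value is the treated-group measurement divided by that of the vehicle-treated control group.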

[1] = dose: 50.0 mg/kg/injection, schedule: Q01DX009 (ip), vehicle: Klucel (hydroxypropylcellulose) (HPC)
[2] = dose: 60.0 mg/kg/injection, schedule: Q01DX005 (ip), vehicle: saline with Tween-80
[3] = dose: 120.0 mg/kg/injection, schedule: Q01DX005 (ip), vehicle: saline with Tween-80
[4] = dose: 240.0 mg/kg/injection, schedule: Q01DX005 (ip), vehicle: saline with Tween-80
[5] = dose: 200.0 mg/kg/injection, schedule: Q01DX005 (ip), vehicle: saline with Tween-80
[6] = dose: 50.0 mg/kg/injection, schedule: Q01DX009 (ip), vehicle: saline with Tween-80
[7] = dose: 100.0 mg/kg/injection, schedule: Q01DX009 (ip), vehicle: saline with Tween-80
[8] = dose: 200.0 mg/kg/injection, schedule: Q01DX009 (ip), vehicle: saline with Tween-80
[9] = dose: 6.25 mg/kg/injection, schedule: Q01DX009 (ip), vehicle: saline
[10] = dose: 50.0 mg/kg/injection, schedule: Q01DX009 (ip), vehicle: saline
[11] = dose: 100.0 mg/kg/injection, schedule: Q01DX009 (ip), vehicle: saline
[12] = dose: 200.0 mg/kg/injection, schedule: Q01DX009 (ip), vehicle: saline
[13] = dose: 100.0 mg/kg/injection, schedule: Q04DX003 (ip), vehicle: saline
[14] = dose: 200.0 mg/kg/injection, schedule: Q04DX003 (ip), vehicle: saline
[15] = dose: 400.0 mg/kg/injection, schedule: Q04DX003 (ip), vehicle: saline

Measured: T/C

CCCC[As](CCCC)SCC1OC(OC(C)=O)C(OC(C)=O)C(OC(C)=O)C1OC(C)=O (configuration not stated)
inactive: [1] 113 % of control | dose: 100.0 mg/kg/injection, schedule: Q01DX009 (ip), vehicle: Klucel (hydroxypropylcellulose) (HPC) 92 % of control

Oc1cc2c(cc1C(c1ccc(Cl)cc1)N1CCCCC1)OCO2 (configuration not stated)
inactive: [2] 117 % of control | [3] 118 % of control | [4] 119 % of control

CC(=O)O/C(C)=C1\CCn2c1nc1ccccc1c2=O
inactive: [2] 104 % of control | [3] 107 % of control | [4] 101 % of control

COc1cc(Br)c(CC(NC(=O)c2ccccc2)c2ccc(OC)c(OC)c2OC)cc1OC (configuration not stated)
inactive: [5] 91 % of control

C=C(C)C1CCC2=CC(CC3(C)OC3C3=CC(C(=O)OC)=C(C1)O3)OC2=O (configuration not stated)
inactive: dose: 12.5 mg/kg/injection, schedule: Q01DX009 (ip), vehicle: Klucel (hydroxypropylcellulose) (HPC) 99 % of control | dose: 25.0 mg/kg/injection, schedule: Q01DX009 (ip), vehicle: Klucel (hydroxypropylcellulose) (HPC) 104 % of control | [1] 100 % of control

Clc1ccc(C(Nc2nncs2)Nc2nncs2)cc1
inactive: [2] 94 % of control | [3] 93 % of control | [4] 98 % of control

COc1ccc(OC)c2c(Cl)cc(N(C)C)nc12
inactive: [2] 99 % of control | [3] 97 % of control

Cc1cc(C)c(N(CCO)CCO)cc1C
inactive: [6] 99 % of control | [7] 108 % of control | [8] 97 % of control

c1ccc(C2=C([P+](c3ccccc3)(c3ccccc3)c3ccccc3)CCO2)cc1
inactive: dose: 1.56 mg/kg/injection, schedule: Q01DX009 (ip), vehicle: saline 110 % of control and 117 % of control | dose: 2.6 mg/kg/injection, schedule: Q01DX009 (ip), vehicle: saline 114 % of control | dose: 3.13 mg/kg/injection, schedule: Q01DX009 (ip), vehicle: saline 119 % of control and 120 % of control | dose: 4.0 mg/kg/injection, schedule: Q01DX009 (ip), vehicle: saline 114 % of control | dose: 6.0 mg/kg/injection, schedule: Q01DX009 (ip), vehicle: saline 117 % of control | [9] 124 % of control | dose: 9.0 mg/kg/injection, schedule: Q01DX009 (ip), vehicle: saline 118 % of control | dose: 12.5 mg/kg/injection, schedule: Q01DX009 (ip), vehicle: saline 100 % of control and 109 % of control

COC(=O)[C@@]1(O)CC(OC)=CC1=O
inactive: dose: 5.0 mg/kg/injection, schedule: Q01DX005 (ip), vehicle: Klucel (hydroxypropylcellulose) (HPC) 93 % of control | dose: 10.0 mg/kg/injection, schedule: Q01DX005 (ip), vehicle: Klucel (hydroxypropylcellulose) (HPC) 95 % of control | dose: 20.0 mg/kg/injection, schedule: Q01DX005 (ip), vehicle: Klucel (hydroxypropylcellulose) (HPC) 100 % of control | dose: 40.0 mg/kg/injection, schedule: Q01DX005 (ip), vehicle: Klucel (hydroxypropylcellulose) (HPC) 93 % of control | dose: 80.0 mg/kg/injection, schedule: Q01DX005 (ip), vehicle: Klucel (hydroxypropylcellulose) (HPC) 98 % of control

COc1ccc2cc3c[n+](C)ccc3cc2c1OC
inactive: dose: 12.5 mg/kg/injection, schedule: Q01DX009 (ip), vehicle: water 118 % of control | dose: 25.0 mg/kg/injection, schedule: Q01DX009 (ip), vehicle: water 112 % of control

C=CC(COC(=O)C(Cl)(Cl)Cl)NC(=O)C(Cl)(Cl)Cl (configuration not stated)
inactive: dose: 6.25 mg/kg/injection, schedule: Q01DX005 (ip), vehicle: distilled water + Tween-80 100 % of control | dose: 12.5 mg/kg/injection, schedule: Q01DX005 (ip), vehicle: distilled water + Tween-80 90 % of control | dose: 25.0 mg/kg/injection, schedule: Q01DX005 (ip), vehicle: distilled water + Tween-80 100 % of control | dose: 50.0 mg/kg/injection, schedule: Q01DX005 (ip), vehicle: distilled water + Tween-80 100 % of control | dose: 100.0 mg/kg/injection, schedule: Q01DX005 (ip), vehicle: distilled water + Tween-80 95 % of control

CC(C)(C)c1ccc2c(O)c(C(C)(C)C)cc(-c3ccccc3)c2c1
inactive: [10] 107 % of control | [11] 110 % of control | [12] 106 % of control

CC(=O)c1ccc(OCc2ccccc2)c(OCc2ccccc2)c1
inactive: [6] 115 % of control | [7] 106 % of control | [8] 95 % of control | dose: 400.0 mg/kg/injection, schedule: Q01DX009 (ip), vehicle: saline with Tween-80 93 % of control

COC(=O)/C=N/O
inactive: dose: 60.0 mg/kg/injection, schedule: Q01DX005 (ip), vehicle: saline 99 % of control | dose: 120.0 mg/kg/injection, schedule: Q01DX005 (ip), vehicle: saline 102 % of control | dose: 240.0 mg/kg/injection, schedule: Q01DX005 (ip), vehicle: saline 102 % of control

Cc1ccc2c(c1)C(=O)c1c(ccc3ccccc13)C2=O
inactive: dose: 50.0 mg/kg/injection, schedule: Q01DX005 (ip), vehicle: saline with Tween-80 95 % of control | dose: 100.0 mg/kg/injection, schedule: Q01DX005 (ip), vehicle: saline with Tween-80 100 % of control | [5] 104 % of control

CCCCOCN(COCCCC)C12CC3CC(CC(C3)C1)C2
inactive: [6] 113 % of control

CC1SC2(C(=O)Nc3ccccc32)N(c2ccc(Cl)cc2)C1=O (configuration not stated)
inactive: [2] 101 % of control | [3] 103 % of control | [4] 96 % of control

O=S(=O)(O)O.[Fe]
inactive: dose: 12.5 mg/kg/injection, schedule: Q01DX009 (ip), vehicle: saline with Tween-80 95 % of control | dose: 25.0 mg/kg/injection, schedule: Q01DX009 (ip), vehicle: saline with Tween-80 95 % of control | [6] 86 % of control

CCCCCCCCCC[N+]1(CC)CCCC1
inactive: dose: 3.12 mg/kg/injection, schedule: Q01DX009 (ip), vehicle: saline 104 % of control | [9] 100 % of control

COc1ccc(Cc2cc3c(cc2OC)OCO3)c(OC)c1
inactive: [2] 100 % of control | [3] 108 % of control | [4] 112 % of control

Clc1nnn(-c2ccccc2)n1
inactive: dose: 62.5 mg/kg/injection, schedule: Q04DX002 (ip), vehicle: saline with Tween-80 101 % of control | dose: 125.0 mg/kg/injection, schedule: Q04DX002 (ip), vehicle: saline with Tween-80 100 % of control

Cc1ccc(S(=O)(=O)ON/N=c2\ccn(C)c3ccccc23)cc1
inactive: [13] 101 % of control | [14] 99 % of control | [15] 99 % of control

CCO[Si](CCSC(=O)N(CCCl)CCCl)(OCC)OCC
inactive: dose: 100.0 mg/kg/injection, schedule: Q04DX002 (ip), vehicle: saline with Tween-80 99 % of control | dose: 200.0 mg/kg/injection, schedule: Q04DX002 (ip), vehicle: saline with Tween-80 98 % of control | dose: 400.0 mg/kg/injection, schedule: Q04DX002 (ip), vehicle: saline with Tween-80 107 % of control

O=Cc1ccc(N2OC(c3ccc([N+](=O)[O-])cc3)C(c3ccc([N+](=O)[O-])cc3)C2c2ccc([N+](=O)[O-])cc2)cc1 (configuration not stated)
inactive: dose: 50.0 mg/kg/injection, schedule: Q01DX009 (ip), vehicle: acetone 96 % of control | dose: 100.0 mg/kg/injection, schedule: Q01DX009 (ip), vehicle: acetone 93 % of control | dose: 200.0 mg/kg/injection, schedule: Q01DX009 (ip), vehicle: acetone 100 % of control

O=C(O)CCN(Cc1ccccc1)Cc1ccccc1
inactive: [13] 100 % of control | [14] 100 % of control | [15] 109 % of control

CCOP(=O)(NNP(=O)(OCC)OCC)OCC
inactive: [10] 106 % of control | [11] 103 % of control | [12] 104 % of control

Source: PubChem BioAssay AID330 (DTP/NCI, 2004)
